Marks after values point to notes of the source that are not given here. Values belong to the compound of their own block, whether it stands above or below them.
How the values were obtained:
[1] = tested on: ‘Fina Sodea’ Clementine mandarin trees
[2] = tested on: on-crop ‘Hass’ avocado trees; assay: Trunk injections, spring bloom and yield of on-crop avocado trees; format: in vivo, ‘Hass’ avocado (Persea americana cv. Hass); conditions: trunk injection 1 g/tree, Jan; for Floral (with fruit): branches with fruit; for Floral (w/o fruit): branches without fruit; for Fruit yield: putative off-crop following the on-crop; for Determinate floral shoots / Floral shoots / Indeterminate floral shoots: spring bloom
Description: This example describes the mitigation of alternate bearing in ‘Hass’ avocado trees achieved via trunk injection of adenosine and plant growth regulators. The following treatments were injected (1 g/tree) in mid-January into the trunk of on-crop ‘Hass’ avocado trees in a commercial orchard in Irvine, Calif.: (1) 9-beta-D-adenosine (Sigma Chemical, Catalog No. A9251); (2) 6-BA (Sigma Chemical); (3) GA3 (PROGIBB® 40%, Valent BioSciences Corp.); (4) TIBA (Sigma Chemical); and (5) TIBA plus adenosine. Each material was supplied at the rate of 1 g per tree dissolved in 50-60 ml distilled water using two plastic syringes per tree. There were five individual tree replicates per treatment, including (6) untreated on-crop control trees. For each tree, branches (12 inches long), 1 with fruit and 1 branch without fruit in each of the four tree quadrants, were tagged.

[3] = tested on: on-crop ‘Nules’ Clementine mandarin trees; assay: Trunk injections, spring bloom of on-crop mandarin trees; format: in vivo; conditions: trunk injection 1 g per tree, counted at spring bloom
Source text: This example describes the mitigation of alternate bearing in ‘Nules’ Clementine mandarin trees achieved via trunk injection of adenosine in a composition containing the auxin transport inhibitor TIBA. On-crop ‘Nules’ Clementine mandarin trees received trunk injections of the following compounds listed in Table 1-1: TIBA (2,3,5-triiodobenzoic acid) (Sigma Chemical); 6-BA (6-benzyladenine) (Sigma Chemical); GA3 (PROGIBB® 40%, Valent BioSciences Corp.); and Ado (9-beta-D-adenosine) (Sigma Chemical, Catalog No. A9251) alone or in combination with TIBA. Each material was supplied at the rate of 1 g per tree dissolved in 50-60 ml distilled water using two plastic syringes per tree at each application time. Application times were timed (1) to stimulate summer shoot growth by overcoming correlative inhibition (July) and (2) to overcome inhibition of spring bud break (January). Thus, trees were treated in July alone or in July and January. There was also a treatment in which the apical three nodes of each shoot were removed to release the lateral buds from the dominance of the apical bud to promote summer vegetative shoot growth. The treatments included untreated on-crop control trees and untreated off-crop control trees. The experimental design was a randomized complete block with 5 individual tree replications per treatment with 13 treatments. For each tree, branches (12 inches long), 3 with fruit and 1 branch without fruit in each of the four tree quadrants, were tagged (off-crop control trees were tagged 3 without fruit and 1 with fruit). At the end of September and December, the number and length of new vegetative shoots were quantified to determine the capacity of treatments to overcome inhibition of buds that produce the summer and fall flush shoots, respectively.

mandarins = conditions: cited from earlier work
[4] = 3-year cumulative, 25 mg/L in 250 gallons water per acre, once at maximum peel thickness
[5] = 3-year cumulative, jumbo (63.51-69.85 mm)
[6] = 3-year cumulative, large (57.16-63.50 mm)
[7] = 3-year cumulative, mammoth (69.86-76.20 mm)
[8] = 3-year cumulative, medium (50.81-57.15 mm)
[9] = 3-year cumulative, small (44.45-50.80 mm)

Effects on mandarin fruit quality ([1]; in vivo): did not have negative effects
Compound: Nc1ncnc2c1ncn2[C@@H]1O[C@H](CO)[C@@H](O)[C@H]1O [Ado, 9-beta-D-adenosine]
Quantity of fruit, Total [1, 4]: 1529.3^y fruit no./tree | Yield of fruit, Total [1, 4]: 126.30^y kg/tree | Quantity of fruit, Colossal ([1]; 3-year cumulative, colossal (76.21-82.55 mm)): 5.64 fruit no./tree | Quantity of fruit, Jumbo [1, 5]: 128.25 a fruit no./tree | Yield of fruit, Jumbo [1, 5]: 15.42 a kg/tree | Quantity of fruit, Large [1, 6]: 360.93 a fruit no./tree | Yield of fruit, Large [1, 6]: 34.67 a kg/tree | Quantity of fruit, Mammoth [1, 7]: 22.89 fruit no./tree | Yield of fruit, Mammoth [1, 7]: 3.52 kg/tree | Quantity of fruit, Medium [1, 8]: 497.05 fruit no./tree | Yield of fruit, Medium [1, 8]: 37.00 kg/tree | Yield of fruit, Colossal ([1]; 3-year cumulative, packing carton size colossal (76.21-82.55 mm)): 1.04 kg/tree | Quantity of fruit, Small [1, 9]: 417.12 fruit no./tree | Yield of fruit, Small [1, 9]: 23.58 kg/tree | Quantity of fruit, Ma + J + L ([1]; 3-year cumulative, sum of mammoth, jumbo and large): 512.07 a fruit no./tree | Yield of fruit, Ma + J + L ([1]; 3-year cumulative, sum of mammoth, jumbo and large (57.16-76.20 mm)): 53.60 kg/tree | Net increase in total yield ([1]; versus control, numerical (non-significant)): 6,799 lbs fruit/200 trees/acre | Net increase in 3-year cumulative yield of commercially valuable large fruit (57.16-76.20 mm in diameter) ([1]; versus control, statistically significant): 4,735 lbs/200 trees/acre | Floral (with fruit) [2]: 8 No. of shoots per 100 nodes | Floral (w/o fruit) [2]: 10 No. of shoots per 100 nodes | Fruit yield [2]: 220 No. per tree | Determinate floral shoots [2]: 3 ab No. of shoots per 100 nodes | Floral shoots [2]: 10 ab No. of shoots per 100 nodes | Indeterminate floral shoots [2]: 7 No. of shoots per 100 nodes | Floral on Spring shoots ([3]; Jul + Jan): 5 bc No. of shoots per 100 nodes | Floral on Summer-Fall shoots ([3]; Jul + Jan): 16 No. of shoots per 100 nodes | Floral shoots ([3]; Jul + Jan): 12 No. of shoots per 100 nodes | Leafless Floral shoots ([3]; Jul + Jan): 0 No. of shoots per 100 nodes | Leafy Floral shoots ([3]; Jul + Jan): 12 No. of shoots per 100 nodes | Floral on Spring shoots ([3]; July): 2 bc No. of shoots per 100 nodes | Floral on Summer-Fall shoots ([3]; July): 14 No. of shoots per 100 nodes | Floral shoots ([3]; July): 10 No. of shoots per 100 nodes | Leafless Floral shoots ([3]; July): 2 No. of shoots per 100 nodes | Leafy Floral shoots ([3]; July): 8 No. of shoots per 100 nodes

Compound: C=C1C[C@]23C[C@@]1(O)CC[C@H]2[C@@]12C=C[C@H](O)[C@@](C)(C(=O)O1)[C@H]2[C@@H]3C(=O)O [GA3, gibberellic acid]
Floral (with fruit) [2]: 6 No. of shoots per 100 nodes | Floral (w/o fruit) [2]: 8 No. of shoots per 100 nodes | Fruit yield [2]: 194 No. per tree | Determinate floral shoots [2]: 2 b No. of shoots per 100 nodes | Floral shoots [2]: 7 b No. of shoots per 100 nodes | Indeterminate floral shoots [2]: 6 No. of shoots per 100 nodes | Effect on total number of fruit per tree (mandarins; light crop year (approximately 550 fruit per tree), four applications from 60% bloom, 15 or 25 mg GA3/L): successfully increase the total number of fruit per tree | Effect on total yield and yield of large size fruit (mandarins; on-crop years (approximately 1200 fruit per tree)): either reduced both total yield and yield of commercially valuable large size fruit (packing carton sizes large, jumbo and mammoth) or had no effect | Floral on Spring shoots ([3]; Jul + Jan): 0 c No. of shoots per 100 nodes | Floral on Summer-Fall shoots ([3]; Jul + Jan): 2 No. of shoots per 100 nodes | Floral shoots ([3]; Jul + Jan): 1 No. of shoots per 100 nodes | Leafless Floral shoots ([3]; Jul + Jan): 0 No. of shoots per 100 nodes | Leafy Floral shoots ([3]; Jul + Jan): 1 No. of shoots per 100 nodes | Floral on Spring shoots ([3]; July): 0 c No. of shoots per 100 nodes | Floral on Summer-Fall shoots ([3]; July): 4 No. of shoots per 100 nodes | Floral shoots ([3]; July): 3 No. of shoots per 100 nodes | Leafless Floral shoots ([3]; July): 0 No. of shoots per 100 nodes | Leafy Floral shoots ([3]; July): 3 No. of shoots per 100 nodes

Compound: O=C(O)c1cc(I)cc(I)c1I [TIBA, 2,3,5-triiodobenzoic acid]
Floral (with fruit) [2]: 11 No. of shoots per 100 nodes | Floral (w/o fruit) [2]: 8 No. of shoots per 100 nodes | Fruit yield [2]: 478 No. per tree | Determinate floral shoots [2]: 1 b No. of shoots per 100 nodes | Floral shoots [2]: 9 b No. of shoots per 100 nodes | Indeterminate floral shoots [2]: 8 No. of shoots per 100 nodes | Floral on Spring shoots ([3]; Jul + Jan): 5 bc No. of shoots per 100 nodes | Floral on Summer-Fall shoots ([3]; Jul + Jan): 26 No. of shoots per 100 nodes | Floral shoots ([3]; Jul + Jan): 18 No. of shoots per 100 nodes | Leafless Floral shoots ([3]; Jul + Jan): 3 No. of shoots per 100 nodes | Leafy Floral shoots ([3]; Jul + Jan): 15 No. of shoots per 100 nodes | Floral on Spring shoots ([3]; July): 3 bc No. of shoots per 100 nodes | Floral on Summer-Fall shoots ([3]; July): 27 No. of shoots per 100 nodes | Floral shoots ([3]; July): 19 No. of shoots per 100 nodes | Leafless Floral shoots ([3]; July): 5 No. of shoots per 100 nodes | Leafy Floral shoots ([3]; July): 13 No. of shoots per 100 nodes

Reference: patent US10292393B2, “Mitigation of alternate bearing” (The Regents of the University of California, priority 2009, dated 2019)
